From US12227496B2 (BRISTOL-MYERS SQUIBB COMPANY, priority 2019, dated 2025)

Target: T1, human FXR (Homo sapiens, UniProt Q96RI1)
T1 construct: expressed in transfected cells; host or cells: HEK293 cells stably carrying a 5xGal4-response-element firefly luciferase reporter, transiently transfected with pcDNA3.1-Gal4-FXR
T1 sequence (Q96RI1 262-486 limits assumed): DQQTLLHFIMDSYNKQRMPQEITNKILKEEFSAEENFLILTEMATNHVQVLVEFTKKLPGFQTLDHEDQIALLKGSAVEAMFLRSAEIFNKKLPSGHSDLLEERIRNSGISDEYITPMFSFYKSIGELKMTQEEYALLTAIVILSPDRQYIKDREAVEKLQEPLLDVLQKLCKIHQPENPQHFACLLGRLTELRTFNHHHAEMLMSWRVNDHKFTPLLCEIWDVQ
Assay: transient human FXR/Gal4-luciferase reporter assay
Assay type: cell-based
Conditions: Gal4-hFXR LBD fusion, luciferase reporter in HEK293 cells; response relative to 8 μM GW-4064
In short: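 HEK293 cells stably carrying a 5×Gal4-response-element firefly luciferase reporter were transiently transfected with Gal4-hFXR. They were then incubated overnight at 37 °C with compound serial dilutions in medium containing 10% charcoal/dextran-stripped FBS. Luminescence was read after Steady-Glo addition.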

Row | Compound | EC50
1 | CCCc1ncc(-c2cccc(N(CC34CCC(c5nc(C6CC6)no5)(CC3)CC4)C(=O)C3CCCCC3)c2)o1 [Example 28, N-((4-(3-cyclopropyl-1,2,4-oxadiazol-5-yl)bicyclo[2.2.2]octan-1-yl)methyl)-N-(3-(2-propyloxazol-5-yl)phenyl)cyclohexanecarboxamide] | 34 nM
2 | O=C(N1CCCCC1)N(CC12CCC(c3nc(C4CC4)no3)(CC1)CC2)c1cccc(-c2nc(C3CC3)no2)c1 [Example 57, N-((4-(3-cyclopropyl-1,2,4-oxadiazol-5-yl)bicyclo[2.2.2]octan-1-yl)methyl)-N-(3-(3-cyclopropyl-1,2,4-oxadiazol-5-yl)phenyl) piperidine-1-carboxamide] | 819 nM
3 | CC(C)(C)c1noc(C23CCC(CN(C(=O)C4CCOCC4)c4cc(F)cc(-c5nc(C6CC6)no5)c4)(CC2)CC3)n1 [Example 115, N-((4-(3-(tert-butyl)-1,2,4-oxadiazol-5-yl)bicyclo[2.2.2]octan-1-yl)methyl)-N-(3-(3-cyclopropyl-1,2,4-oxadiazol-5-yl)-5-fluorophenyl)tetrahydro-2H-pyran-4-carboxamide] | 83 nM
4 | O=C(C1CCC(F)(F)CC1)N(CC12CCC(c3nc(C4CC4)no3)(CC1)CC2)c1cccc(-c2cnc(C3CC3)o2)c1 [Example 26, N-((4-(3-cyclopropyl-1,2,4-oxadiazol-5-yl)bicyclo[2.2.2]octan-1-yl)methyl)-N-(3-(2-cyclopropyloxazol-5-yl)phenyl)-4,4-difluorocyclohexane-1-carboxamide] | 355 nM
5 | O=C(C1CCCOC1)N(CC12CCC(c3nc(C4CC4)no3)(CC1)CC2)c1cccc(-c2nc(C3CC3)no2)c1 (racemic) [Example 16, N-((4-(3-cyclopropyl-1,2,4-oxadiazol-5-yl)bicyclo[2.2.2]octan-1-yl)methyl)-N-(3-(3-cyclopropyl-1,2,4-oxadiazol-5-yl)phenyl)tetrahydro-2H-pyran-3-carboxamide] | 226 nM
6 | CCOc1ccc(-c2cccc(N(CC34CCC(c5noc(C(C)(F)F)n5)(CC3)CC4)C(=O)C3CCC(F)(F)CC3)c2)cc1 [Example 113, N-((4-(5-(1,1-difluoroethyl)-1,2,4-oxadiazol-3-yl)bicyclo[2.2.2]octan-1-yl)methyl)-N-(4′-ethoxy-[1,1′-biphenyl]-3-yl)-4,4-difluorocyclohexane-1-carboxamide] | 665 nM
7 | O=C(N1CCC(N2CCCCC2)CC1)N(CC12CCC(c3nc(C4CC4)no3)(CC1)CC2)c1cccc(-c2nc(C3CC3)no2)c1 [Example 64, N-((4-(3-cyclopropyl-1,2,4-oxadiazol-5-yl)bicyclo[2.2.2]octan-1-yl)methyl)-N-(3-(3-cyclopropyl-1,2,4-oxadiazol-5-yl)phenyl)-[1,4′-bipiperidine]-1′-carboxamide] | 4820 nM
8 | CCOc1ccc(-c2cccc(N(CC34CCC(c5nc(C(C)(C)C)no5)(CC3)CC4)C(=O)C3CCC(OC)CC3)c2)cc1 (single isomer, unassigned) [Example 146, N-((4-(3-(tert-butyl)-1,2,4-oxadiazol-5-yl)bicyclo[2.2.2]octan-1-yl)methyl)-N-(4′-ethoxy-[1,1′-biphenyl]-3-yl)-4-methoxycyclohexane-1-carboxamide] | 402 nM
9 | COc1ncc(-c2cccc(N(CC34CCC(c5nc(C)no5)(CC3)CC4)C(=O)C3CCCCC3)c2)o1 [Example 6, N-(3-(2-methoxyoxazol-5-yl)phenyl)-N-((4-(3-methyl-1,2,4-oxadiazol-5-yl)bicyclo[2.2.2]octan-1-yl)methyl)cyclohexanecarboxamide] | 118 nM
10 | CN1CCC(C(=O)N(CC23CCC(c4noc(C(C)(C)C)n4)(CC2)CC3)c2cccc(-c3nc(C4CC4)no3)c2)CC1 [Example 118, N-((4-(5-(tert-butyl)-1,2,4-oxadiazol-3-yl)bicyclo[2.2.2]octan-1-yl)methyl)-N-(3-(3-cyclopropyl-1,2,4-oxadiazol-5-yl)phenyl)-1-methylpiperidine-4-carboxamide] | 1950 nM
11 | Cc1cnc(C23CCC(CN(C(=O)C4CCCCC4)c4cccc(-c5nc(C6CC6)no5)c4)(CC2)CC3)o1 [Example 35, N-(3-(3-cyclopropyl-1,2,4-oxadiazol-5-yl)phenyl)-N-((4-(5-methyloxazol-2-yl)bicyclo[2.2.2]octan-1-yl)methyl)cyclohexanecarboxamide] | 515 nM
12 | CCOc1ncc(-c2cccc(N(CC34CCC(c5nc(C(C)(C)C)no5)(CC3)CC4)C(=O)c3cc(Cl)cc(Cl)c3)c2)cn1 [Example 125, N-((4-(3-(tert-Butyl)-1,2,4-oxadiazol-5-yl)bicyclo[2.2.2]octan-1-yl)methyl)-3,5-dichloro-N-(3-(2-ethoxypyrimidin-5-yl)phenyl)benzamide] | 726 nM
13 | CCOc1ncc(-c2cccc(N(CC34CCC(c5nc(C6CC6)no5)(CC3)CC4)C(=O)C3CCCCC3)c2)o1 [Example 8, N-((4-(3-cyclopropyl-1,2,4-oxadiazol-5-yl)bicyclo[2.2.2]octan-1-yl)methyl)-N-(3-(2-ethoxyoxazol-5-yl)phenyl)cyclohexanecarboxamide] | 19 nM
14 | CCOc1ncc(-c2cccc(N(CC34CCC(c5noc(C(C)(C)C)n5)(CC3)CC4)C(=O)C3CCOCC3)c2)cn1 [Example 88, N-((4-(5-(tert-butyl)-1,2,4-oxadiazol-3-yl)bicyclo[2.2.2]octan-1-yl)methyl)-N-(3-(2-ethoxypyrimidin-5-yl)phenyl)tetrahydro-2H-pyran-4-carboxamide] | 227 nM
15 | CN1CCC(C(=O)N(CC23CCC(c4cc(C5CC5)nn4C)(CC2)CC3)c2cccc(-c3ccc(S(C)(=O)=O)cc3)c2)CC1 [Example 136, N-((4-(3-cyclopropyl-1-methyl-1H-pyrazol-5-yl)bicyclo[2.2.2]octan-1-yl)methyl)-1-methyl-N-(4′-(methylsulfonyl)-[1,1′-biphenyl]-3-yl)piperidine-4-carboxamide] | 4000 nM
